Results: patent US20160214961A1, “NOVEL SALTS OF CRIZOTINIB AND THEIR PREPARATION” (SHILPA MEDICARE LIMITED, priority 2013, published 2016)

Columns and labels:
[1] = cited from earlier work
[2] = class IV = low solubility and low permeability; cited from earlier work
[3] = powder; cited from earlier work
[4] = Stability on handling and storage of the salts; assay type: physicochemical; conditions: storage for longer time; no significant or measurable change

| stability to handle and store for longer time (morphology and physicochemical characteristics) [4] | SMILES | solubility in acidic pH ([1]; acidic pH) | solubility in water ([1]; water) | Biopharmaceutics Classification System (BCS) class [2] | hygroscopicity [3] |
| --- | --- | --- | --- | --- | --- |
|  | C[C@@H](Oc1cc(-c2cnn(C3CCNCC3)c2)cnc1N)c1c(Cl)ccc(F)c1Cl [Crizotinib, (R)-3-[1-(2,6-Dichloro-3-fluorophenyl)ethoxy]-5-[1-(piperidin-4-yl)-1H-pyrazol-4-yl]pyridin-2-amine] | highly soluble | insoluble | class IV | non-hygroscopic |
| adequately stable | C[C@@H](Oc1cc(-c2cnn(C3CCNCC3)c2)cnc1N)c1c(Cl)ccc(F)c1Cl [Crizotinib Ferulate] |  |  |  |  |
